Tests used:
[1] = test system: Coronavirus (strain OC43); experiment: Virucidal Suspension Test (In-Vitro Time-Kill method) based upon ASTM E1052-20
Experimental: (§1) The antiviral activities of Composition A and Composition B were evaluated by challenging them with two different viruses, Coronavirus (strain OC43, ZeptoMetrix Corp. #0810024CF) and Influenza A H1N1 (strain A/WS/33, ATCC #VR-1520). A Virucidal Suspension Test (In-Vitro Time-Kill method) based upon the ASTM E1052-20, “Standard Practice to Assess the Activity of Microbicides against Viruses in Suspension” was used. The percent and log10 reductions from the initial populations of the viral strains were determined following exposure to Compositions A and B at two different exposure times (2 minutes and 10 minutes).

[2] = test system: Influenza A H1N1 (strain A/WS/33); experiment: as above
Experimental: as §1

Row | Substance | Log10 reduction ([1]; 10 µg/mL, 2 min exposure) | Percent reduction ([1]; 10 µg/mL, 2 min exposure) | Log10 reduction ([1]; 10 µg/mL, 10 min exposure) | Percent reduction ([1]; 10 µg/mL, 10 min exposure) | Log10 reduction ([1]; 100 µg/mL, 2 min exposure) | Percent reduction ([1]; 100 µg/mL, 2 min exposure) | Log10 reduction ([1]; 100 µg/mL, 10 min exposure) | Percent reduction ([1]; 100 µg/mL, 10 min exposure) | Log10 reduction ([1]; 1000 µg/mL, 2 min exposure) | Percent reduction ([1]; 1000 µg/mL, 2 min exposure) | Log10 reduction ([1]; 1000 µg/mL, 10 min exposure) | Percent reduction ([1]; 1000 µg/mL, 10 min exposure) | Log10 reduction ([2]; 10 µg/mL, 2 min exposure) | Percent reduction ([2]; 10 µg/mL, 2 min exposure) | Log10 reduction ([2]; 10 µg/mL, 10 min exposure) | Percent reduction ([2]; 10 µg/mL, 10 min exposure) | Log10 reduction ([2]; 100 µg/mL, 2 min exposure) | Percent reduction ([2]; 100 µg/mL, 2 min exposure) | Log10 reduction ([2]; 100 µg/mL, 10 min exposure) | Percent reduction ([2]; 100 µg/mL, 10 min exposure) | other results
1 | Poly(L-lysine hydrochloride)-b-poly(D,L-leucine) [Composition A] | 0.25 log10 | 43.77% | 0.5 log10 | 68.38% | 0.25 log10 | 43.77% | 0.5 log10 | 68.38% | 0.5 log10 | 68.38% | 1 log10 | 90% | 0.25 log10 | 43.77% | 0.50 log10 | 68.38% | 0.75 log10 | 82.22% | 0.75 log10 | 82.22% | Log10 reduction ([2]; 1000 µg/mL, 2 min exposure): 0.75 log10; Percent reduction ([2]; 1000 µg/mL, 2 min exposure): 82.22%; Log10 reduction ([2]; 1000 µg/mL, 10 min exposure): 0.50 log10; Percent reduction ([2]; 1000 µg/mL, 10 min exposure): 68.38%
2 | Poly(L-lysine hydrochloride)-b-poly(L-leucine) [Composition B] | 0.25 log10 | 43.77% | 1 log10 | 90% | 0.75 log10 | 82.22% | 0.75 log10 | 82.22% | 0.5 log10 | 68.38% | 0.75 log10 | 82.22% | 0.75 log10 | 82.22% | 0.75 log10 | 82.22% | 0.50 log10 | 68.38% | 0.50 log10 | 68.38% | Log10 reduction ([2]; 1000 µg/mL, 2 min exposure): 0.00 log10; Percent reduction ([2]; 1000 µg/mL, 2 min exposure): 0.00%; Log10 reduction ([2]; 1000 µg/mL, 10 min exposure): 1.00 log10; Percent reduction ([2]; 1000 µg/mL, 10 min exposure): 90.00%

Source: US20230149333A1, “COMPOSITIONS AND USES OF LOCALLY APPLIED SYNTHETIC AMINO ACID POLYMERS FOR PREVENTION AND TREATMENT OF VIRAL INFECTIONS” (Amicrobe, Inc., priority 2020, published 2023)
